# Key:
# Assay type in all cases: in vivo
# [1] = tested on: field corn (Zea mays L., var. Dekalb 535, CORN); assay: Pre-emerge test, crop safety; conditions: rating scale 0-100, 14 days after application
# Outline: (§1)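 Compounds in acetone were track-sprayed at 187 l/ha, 15–1000 g ai/ha, onto sandy loam pots. Pre-emerge seeds were sown one day before spraying, with surface watering afterwards. Post-emerge plants were at the 2–3 leaf stage and sprayed with 0.25% v/v non-ionic surfactant. Injury was rated 0–100 at 14 days.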
# [2] = tested on: upland rice (Oryza sp., var. Tebonnet, RICE); assay: Pre-emerge test, crop safety; conditions: rating scale 0-100, 14 days after application
# Outline: as §1
# [3] = tested on: redroot pigweed (Amaranthus retroflexus, AMARE); assay: Pre-emerge test, greenhouse herbicide activity screening; conditions: rating scale 0-100, 14 days after application
# Outline: (§2)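 Plants grown in 10 cm pots of sandy loam mix received acetone-dissolved compounds through a moving flat-fan nozzle. Doses ranged from 15 to 1000 g ai/ha. Pre-emerge pots were seeded one day earlier, post-emerge pots 8–21 days earlier. Fourteen days on, each pot was graded 0–100 for damage.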
# [4] = tested on: velvetleaf (Abutilon theophrasti, ABUTH); assay: as above; conditions: rating scale 0-100, 14 days after application
# Outline: (§3)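 Fourteen days after spraying, crop and weed injury was graded visually from 0, no effect, to 100, every plant dead. Test substances were dissolved in acetone and applied at 15–1000 g ai/ha with a flat-fan nozzle. Application was either pre-emergence, one day after sowing, or post-emergence at the 2–3 leaf stage.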
# [5] = tested on: large crabgrass (Digitaria sanguinalis, DIGSA); assay: as above; conditions: rating scale 0-100, 14 days after application
# Outline: as §3
# [6] = tested on: sicklepod (Cassia obtusifolia, CASOB); assay: as above; conditions: rating scale 0-100, 14 days after application
# Outline: as §3
# [7] = tested on: green foxtail (Setaria viridis, SETVI); assay: as above; conditions: rating scale 0-100, 14 days after application
# Outline: as §3
# [8] = tested on: johnsongrass (Sorghum halepense, SORHA); assay: as above; conditions: rating scale 0-100, 14 days after application
# Outline: as §3
# [9] = tested on: lambsquarters (Chenopodium album, CHEAL); assay: as above; conditions: rating scale 0-100, 14 days after application
# Outline: as §3
# [10] = tested on: ivyleaf morningglory (Ipomoea hederacea, IPOHE); assay: as above; conditions: rating scale 0-100, 14 days after application
# Outline: as §3
# [11] = tested on: barnyardgrass (Echinochloa crus-galli, ECHCG); assay: as above; conditions: rating scale 0-100, 14 days after application
# Outline: as §3
# [12] = tested on: velvetleaf (Abutilon theophrasti, ABUTH); assay: Post-emerge test, greenhouse herbicide activity screening; conditions: rating scale 0-100 (0 no damage, 100 complete death), 14 days after application
# Outline: as §2
# [13] = tested on: large crabgrass (Digitaria sanguinalis, DIGSA); assay: as above; conditions: rating scale 0-100 (0 no damage, 100 complete death), 14 days after application
# Outline: as §2
# [14] = tested on: sicklepod (Cassia obtusifolia, CASOB); assay: as above; conditions: rating scale 0-100 (0 no damage, 100 complete death), 14 days after application
# Outline: as §2
# [15] = tested on: green foxtail (Setaria viridis, SETVI); assay: as above; conditions: rating scale 0-100 (0 no damage, 100 complete death), 14 days after application
# Outline: as §2
# [16] = tested on: johnsongrass (Sorghum halepense, SORHA); assay: as above; conditions: rating scale 0-100 (0 no damage, 100 complete death), 14 days after application
# Outline: as §2
# [17] = tested on: lambsquarters (Chenopodium album, CHEAL); assay: as above; conditions: rating scale 0-100 (0 no damage, 100 complete death), 14 days after application
# Outline: as §2
# [18] = tested on: common ragweed (Ambrosia artemisizfolia L., AMBEL); assay: as above; conditions: rating scale 0-100 (0 no damage, 100 complete death), 14 days after application
# Outline: as §2
# [19] = tested on: redroot pigweed (Amaranthus retroflexus, AMARE); assay: as above; conditions: rating scale 0-100 (0 no damage, 100 complete death), 14 days after application
# Outline: as §2
# [20] = tested on: ivyleaf morningglory (Ipomoea hederacea, IPOHE); assay: as above; conditions: rating scale 0-100 (0 no damage, 100 complete death), 14 days after application
# Outline: as §2
# [21] = tested on: barnyardgrass (Echinochloa crus-galli, ECHCG); assay: as above; conditions: rating scale 0-100 (0 no damage, 100 complete death), 14 days after application
# Outline: as §2
# [22] = tested on: field corn (Zea mays L., var. Dekalb 535, CORN); assay: Post-emerge test, crop safety; conditions: rating scale 0-100 (0 no damage, 100 complete death), 14 days after application
# Outline: as §3
# [23] = tested on: upland rice (Oryza sp., var. Tebonnet, RICE); assay: Post-emerge test, crop safety; conditions: rating scale 0-100 (0 no damage, 100 complete death), 14 days after application
# Outline: as §3
compound,measurement,setting,value
"CCOC(=O)C(Br)Cc1c(OC)c(Cl)cc(F)c1-n1c(=O)cc(C(F)(F)F)n(C)c1=O (single isomer, unassigned) [14-32]","Pre-emerge phytotoxicity rating, crop damage CORN",[1]; 63 g ai/ha,0
same,"Pre-emerge phytotoxicity rating, crop damage CORN",[1]; 250 g ai/ha,0
same,"Pre-emerge phytotoxicity rating, crop damage RICE",[2]; 63 g ai/ha,0
same,"Pre-emerge phytotoxicity rating, crop damage RICE",[2]; 250 g ai/ha,10
same,"Pre-emerge herbicidal activity, phytotoxicity rating AMARE",[3]; 63 g ai/ha,100
same,"Pre-emerge herbicidal activity, phytotoxicity rating AMARE",[3]; 250 g ai/ha,100
same,"Pre-emerge herbicidal activity, phytotoxicity rating ABUTH",[4]; 63 g ai/ha,10
same,"Pre-emerge herbicidal activity, phytotoxicity rating ABUTH",[4]; 250 g ai/ha,50
same,"Pre-emerge herbicidal activity, phytotoxicity rating DIGSA",[5]; 63 g ai/ha,20
same,"Pre-emerge herbicidal activity, phytotoxicity rating DIGSA",[5]; 250 g ai/ha,100
same,"Pre-emerge herbicidal activity, phytotoxicity rating CASOB",[6]; 63 g ai/ha,0
same,"Pre-emerge herbicidal activity, phytotoxicity rating CASOB",[6]; 250 g ai/ha,30
same,"Pre-emerge herbicidal activity, phytotoxicity rating SETVI",[7]; 63 g ai/ha,0
same,"Pre-emerge herbicidal activity, phytotoxicity rating SETVI",[7]; 250 g ai/ha,40
same,"Pre-emerge herbicidal activity, phytotoxicity rating SORHA",[8]; 63 g ai/ha,0
same,"Pre-emerge herbicidal activity, phytotoxicity rating SORHA",[8]; 250 g ai/ha,20
same,"Pre-emerge herbicidal activity, phytotoxicity rating CHEAL",[9]; 63 g ai/ha,80
same,"Pre-emerge herbicidal activity, phytotoxicity rating CHEAL",[9]; 250 g ai/ha,100
same,"Pre-emerge herbicidal activity, phytotoxicity rating IPOHE",[10]; 63 g ai/ha,0
same,"Pre-emerge herbicidal activity, phytotoxicity rating IPOHE",[10]; 250 g ai/ha,0
same,"Pre-emerge herbicidal activity, phytotoxicity rating ECHCG",[11]; 63 g ai/ha,0
same,"Pre-emerge herbicidal activity, phytotoxicity rating ECHCG",[11]; 250 g ai/ha,30
same,"Post-emerge Herbicidal Activity, phytotoxicity rating ABUTH",[12]; Rate 63 g ai/ha,90
same,"Post-emerge Herbicidal Activity, phytotoxicity rating ABUTH",[12]; Rate 250 g ai/ha,95
same,"Post-emerge Herbicidal Activity, phytotoxicity rating DIGSA",[13]; Rate 63 g ai/ha,70
same,"Post-emerge Herbicidal Activity, phytotoxicity rating DIGSA",[13]; Rate 250 g ai/ha,90
same,"Post-emerge Herbicidal Activity, phytotoxicity rating CASOB",[14]; Rate 63 g ai/ha,20
same,"Post-emerge Herbicidal Activity, phytotoxicity rating CASOB",[14]; Rate 250 g ai/ha,40
same,"Post-emerge Herbicidal Activity, phytotoxicity rating SETVI",[15]; Rate 63 g ai/ha,40
same,"Post-emerge Herbicidal Activity, phytotoxicity rating SETVI",[15]; Rate 250 g ai/ha,70
same,"Post-emerge Herbicidal Activity, phytotoxicity rating SORHA",[16]; Rate 63 g ai/ha,0
same,"Post-emerge Herbicidal Activity, phytotoxicity rating SORHA",[16]; Rate 250 g ai/ha,10
same,"Post-emerge Herbicidal Activity, phytotoxicity rating CHEAL",[17]; Rate 63 g ai/ha,0
same,"Post-emerge Herbicidal Activity, phytotoxicity rating CHEAL",[17]; Rate 250 g ai/ha,80
same,"Post-emerge Herbicidal Activity, phytotoxicity rating AMBEL",[18]; Rate 63 g ai/ha,40
same,"Post-emerge Herbicidal Activity, phytotoxicity rating AMBEL",[18]; Rate 250 g ai/ha,40
same,"Post-emerge Herbicidal Activity, phytotoxicity rating AMARE",[19]; Rate 63 g ai/ha,95
same,"Post-emerge Herbicidal Activity, phytotoxicity rating AMARE",[19]; Rate 250 g ai/ha,100
same,"Post-emerge Herbicidal Activity, phytotoxicity rating IPOHE",[20]; Rate 63 g ai/ha,0
same,"Post-emerge Herbicidal Activity, phytotoxicity rating IPOHE",[20]; Rate 250 g ai/ha,20
same,"Post-emerge Herbicidal Activity, phytotoxicity rating ECHCG",[21]; Rate 63 g ai/ha,100
same,"Post-emerge Herbicidal Activity, phytotoxicity rating ECHCG",[21]; Rate 250 g ai/ha,100
same,Post-emerge phytotoxicity rating CORN (crop damage),[22]; Rate 63 g ai/ha,0
same,Post-emerge phytotoxicity rating CORN (crop damage),[22]; Rate 250 g ai/ha,0
same,Post-emerge phytotoxicity rating RICE (crop damage),[23]; Rate 63 g ai/ha,0
same,Post-emerge phytotoxicity rating RICE (crop damage),[23]; Rate 250 g ai/ha,0
